Laboratory results from patent US20070128217A1 (priority 2003, published 2007).

What was measured:
[1] = tested on: control sera (pooled serum of ten healthy LUMC hospital workers; commercial negative donor pooled serum from the Dutch bloodbank); type: binding, human; set-up: Binding of Control serum LUMC to linear peptides / Binding of Control serum Blood-bank to linear peptides / Binding of Control serum LUMC to looped peptides / Binding of Control Serum Blood-Bank to Looped peptides / Binding of Control serum LUMC to linear peptides of the protein M of SARS-CoV Urbani / Binding of Control serum Blood-bank to linear peptides of the protein M of SARS-CoV Urbani / Binding of Control serum LUMC to looped peptides of the protein M of SARS-CoV Urbani / Binding of Control Serum Blood-Bank to Looped peptides of the protein M of SARS-CoV Urbani: unit not given here
[2] = tested on: rabbit serum obtained by immunizing a rabbit with the SARS-CoV strain Frankfurt 1; type: binding; set-up: Binding of a rabbit serum to linear peptides / Binding of a rabbit serum to looped peptides / Rabbit serum linear peptides / Rabbit serum looped peptides / Binding of a rabbit serum to linear peptides of protein N of SARS-CoV Urbani (Rabbit serum linear peptides) / Binding of a rabbit serum to looped/cyclic peptides of protein N of SARS-CoV Urbani (Rabbit serum looped peptides): unit not given here

Sequence | Binding of Control Serum Blood-Bank to Looped peptides of the protein M of SARS-CoV Urbani [1] | Binding of Control serum Blood-bank to linear peptides of the protein M of SARS-CoV Urbani [1] | Binding of Control serum LUMC to linear peptides of the protein M of SARS-CoV Urbani [1] | Binding of Control serum LUMC to looped peptides of the protein M of SARS-CoV Urbani [1] | Rabbit serum linear peptides [2] | Rabbit serum looped peptides [2] | Binding of Control Serum Blood-Bank to Looped peptides [1] | Binding of Control serum Blood-bank to linear peptides [1] | Binding of Control serum LUMC to linear peptides [1] | Binding of Control serum LUMC to looped peptides [1] | Binding of a rabbit serum to linear peptides [2] | Binding of a rabbit serum to looped peptides [2]
VTGGIAIAMACIVGL | 0.7 | 1.1 | 1.3 | 0.8 | 0.3 | 0.4 |  |  |  |  |  | 
VTINCQDPAGGALIA |  |  |  |  | 0.5 | 0.0 | 0.5 | 0.8 | 0.6 | 0.5 |  | 
WVTGGIAIAMACIVG | 0.8 | 0.8 | 0.4 | 0.9 | 0.4 | 0.2 |  |  |  |  |  | 
YDANYFVCWHTHNYD |  |  |  |  |  |  | 0.3 | 0.7 | 0.7 | 0.4 | 0.1 | 0.4
YHYQECVRGTTVLLK |  |  |  |  | 1.7 | 0.6 | 0.7 | 0.8 | 0.7 | 0.8 |  | 
YKLNTDHAGSNDNIA | 0.6 | 0.6 | 0.7 | 0.6 | 0.1 | 0.1 |  |  |  |  |  | 
YQIGGYSEDRHSGVK |  |  |  |  |  |  | 0.3 | 0.3 | 0.4 | 0.3 | 0.1 | 0.5
YSRVKNLNSSEGVPD |  |  |  |  |  |  | 0.4 | 0.6 | 0.8 | 0.8 | 0.3 | 0.0
YVYSRVKNLNSSEGV |  |  |  |  |  |  | 0.9 | 0.8 | 0.6 | 0.8 | 1.2 | 0.5
YYKLGASQRVGTDSG | 0.7 | 1.0 | 0.8 | 0.7 | 0.1 | 0.0 |  |  |  |  |  | 
